Data as given in PubChem BioAssay AID2060898 (Molecular Pharmacology Branch, DTP, NCI, 2025).
Several values for one entry are separate records, joined by “and”; a condition that tells them apart may be missing. Identical values can stand only once. One block for each compound: values may come before it.

System: 616215-338-R-J1-PDC complex spheroid viability
Assay: Anticancer human tumor 616215-338-R-J1-PDC patient-derived colon adenocarcinoma cell line growth inhibition [RAS]
Details: for viability, T/C: stronger effect = lower value
How it was run: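 Agents were tested in combination matrices in half-log decrements from a top concentration at or near clinical Cmax (10 microM if undetermined). Targets were multi-cell spheroids of tumour lines plus HUVEC and MSC stromal cells.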

[1] = curve of first compound, second compound 0.0316 µM
[2] = curve of first compound, second compound 0.1 µM
[3] = curve of first compound, second compound 0.316 µM
[4] = curve of first compound, second compound 1 µM
[5] = second compound 0.0316 µM, first compound 0.00316 µM
[6] = second compound 0.0316 µM, first compound 0.01 µM
[7] = second compound 0.0316 µM, first compound 0.0316 µM
[8] = second compound 0.0316 µM, first compound 0.1 µM
[9] = second compound 0.1 µM, first compound 0.00316 µM
[10] = second compound 0.1 µM, first compound 0.01 µM
[11] = second compound 0.1 µM, first compound 0.0316 µM
[12] = second compound 0.1 µM, first compound 0.1 µM
[13] = second compound 0.316 µM, first compound 0.00316 µM
[14] = second compound 0.316 µM, first compound 0.01 µM
[15] = second compound 0.316 µM, first compound 0.0316 µM
[16] = second compound 0.316 µM, first compound 0.1 µM
[17] = second compound 1 µM, first compound 0.00316 µM
[18] = second compound 1 µM, first compound 0.01 µM
[19] = second compound 1 µM, first compound 0.0316 µM
[20] = second compound 1 µM, first compound 0.1 µM
[21] = curve of first compound, second compound 3.16 µM
[22] = curve of first compound, second compound 10 µM
[23] = second compound 0.0316 µM, first compound 0.316 µM
[24] = second compound 0.0316 µM, first compound 1 µM
[25] = second compound 0.1 µM, first compound 0.316 µM
[26] = second compound 0.1 µM, first compound 1 µM
[27] = second compound 0.316 µM, first compound 0.316 µM
[28] = second compound 0.316 µM, first compound 1 µM
[29] = second compound 1 µM, first compound 0.316 µM
[30] = second compound 1 µM, first compound 1 µM
[31] = second compound 3.16 µM, first compound 0.0316 µM
[32] = second compound 3.16 µM, first compound 0.1 µM
[33] = second compound 3.16 µM, first compound 0.316 µM
[34] = second compound 3.16 µM, first compound 1 µM
[35] = second compound 10 µM, first compound 0.0316 µM
[36] = second compound 10 µM, first compound 0.1 µM
[37] = second compound 10 µM, first compound 0.316 µM
[38] = second compound 10 µM, first compound 1 µM
[39] = second compound 0.0316 µM, first compound 3.16 µM
[40] = second compound 0.0316 µM, first compound 10 µM
[41] = second compound 0.1 µM, first compound 3.16 µM
[42] = second compound 0.1 µM, first compound 10 µM
[43] = second compound 0.316 µM, first compound 3.16 µM
[44] = second compound 0.316 µM, first compound 10 µM
[45] = second compound 1 µM, first compound 3.16 µM
[46] = second compound 1 µM, first compound 10 µM
[47] = second compound 3.16 µM, first compound 3.16 µM
[48] = second compound 3.16 µM, first compound 10 µM
[49] = second compound 10 µM, first compound 3.16 µM
[50] = second compound 10 µM, first compound 10 µM
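Note: spheroids exposed to agents for seven days before viability readout.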
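Throughout, for viability, T/C: 100% = DMSO vehicle control viability.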

- IC50 (curve of first compound, second compound 0.00316 µM): > 0.1 µM
- IC50 (curve of first compound, second compound 0.01 µM): > 0.1 µM
- IC50 [1]: > 0.1 µM
- IC50 [2]: > 0.1 µM
- IC50 [3]: > 0.1 µM
- IC50 [4]: > 0.1 µM
Structure (SMILES): CC(C)n1nc(-c2ccc3oc(N)nc3c2)c2c(N)ncnc21 + C=CC(=O)N1CCN(c2nc(OCC3CCCN3C)nc3c(F)c(-c4nc(N)cc(C)c4C(F)(F)F)c(Cl)cc23)C(C)C1
- viability, T/C (second compound 0.00316 µM, first compound 0.000316 µM): 107%
- viability, T/C (second compound 0.00316 µM, first compound 0.001 µM): 109%
- viability, T/C (second compound 0.00316 µM, first compound 0.00316 µM): 99.9%
- viability, T/C (second compound 0.00316 µM, first compound 0.01 µM): 119%
- viability, T/C (second compound 0.00316 µM, first compound 0.0316 µM): 120%
- viability, T/C (second compound 0.00316 µM, first compound 0.1 µM): 77.9%
- viability, T/C (second compound 0.01 µM, first compound 0.000316 µM): 100%
- viability, T/C (second compound 0.01 µM, first compound 0.001 µM): 111%
- viability, T/C (second compound 0.01 µM, first compound 0.00316 µM): 107%
- viability, T/C (second compound 0.01 µM, first compound 0.01 µM): 119%
- viability, T/C (second compound 0.01 µM, first compound 0.0316 µM): 117%
- viability, T/C (second compound 0.01 µM, first compound 0.1 µM): 70.7%
- viability, T/C (second compound 0.0316 µM, first compound 0.000316 µM): 105%
- viability, T/C (second compound 0.0316 µM, first compound 0.001 µM): 109%
- viability, T/C [5]: 113%
- viability, T/C [6]: 111%
- viability, T/C [7]: 114%
- viability, T/C [8]: 71.7%
- viability, T/C (second compound 0.1 µM, first compound 0.000316 µM): 110%
- viability, T/C (second compound 0.1 µM, first compound 0.001 µM): 100%
- viability, T/C [9]: 111%
- viability, T/C [10]: 116%
- viability, T/C [11]: 109%
- viability, T/C [12]: 72.2%
- viability, T/C (second compound 0.316 µM, first compound 0.000316 µM): 109%
- viability, T/C (second compound 0.316 µM, first compound 0.001 µM): 108%
- viability, T/C [13]: 111%
- viability, T/C [14]: 109%
- viability, T/C [15]: 129%
- viability, T/C [16]: 71.3%
- viability, T/C (second compound 1 µM, first compound 0.000316 µM): 109%
- viability, T/C (second compound 1 µM, first compound 0.001 µM): 99.6%
- viability, T/C [17]: 118%
- viability, T/C [18]: 118%
- viability, T/C [19]: 115%
- viability, T/C [20]: 70%

- IC50 [1]: 0.0877 µM
- IC50 [2]: 0.0754 µM
- IC50 [3]: 0.0559 µM
- IC50 [4]: 0.0305 µM
- IC50 [21]: 0.019 µM
- IC50 [22]: < 0.00316 µM
Structure (SMILES): O=C(c1ccc(F)c(F)c1Nc1ccc(I)cc1F)N1CC(O)([C@@H]2CCCCN2)C1 + C#Cc1c(F)ccc2cc(O)cc(-c3ncc4c(N5CC6CCC(C5)N6)nc(OCC56CCCN5CC(F)C6)nc4c3F)c12
- viability, T/C [5]: 112%
- viability, T/C [6]: 98%
- viability, T/C [7]: 83.8%
- viability, T/C [8]: 47.4%
- viability, T/C [23]: 12.5%
- viability, T/C [24]: 5.72%
- viability, T/C [9]: 114%
- viability, T/C [10]: 112%
- viability, T/C [11]: 85.1%
- viability, T/C [12]: 39.3%
- viability, T/C [25]: 10%
- viability, T/C [26]: 6.39%
- viability, T/C [13]: 124%
- viability, T/C [14]: 111%
- viability, T/C [15]: 73.6%
- viability, T/C [16]: 25.3%
- viability, T/C [27]: 13%
- viability, T/C [28]: 5.14%
- viability, T/C [17]: 115%
- viability, T/C [18]: 96.3%
- viability, T/C [19]: 44.3%
- viability, T/C [20]: 24.3%
- viability, T/C [29]: 8.74%
- viability, T/C [30]: 5.44%
- viability, T/C (second compound 3.16 µM, first compound 0.00316 µM): 75.3%
- viability, T/C (second compound 3.16 µM, first compound 0.01 µM): 64.9%
- viability, T/C [31]: 36.6%
- viability, T/C [32]: 23.4%
- viability, T/C [33]: 7.41%
- viability, T/C [34]: 3.17%
- viability, T/C (second compound 10 µM, first compound 0.00316 µM): 48.8%
- viability, T/C (second compound 10 µM, first compound 0.01 µM): 35.3%
- viability, T/C [35]: 24.3%
- viability, T/C [36]: 14.4%
- viability, T/C [37]: 1.94%
- viability, T/C [38]: 1.77%

- IC50 [1]: > 10 µM
- IC50 [2]: > 10 µM
- IC50 [3]: 9.71 µM
- IC50 [4]: 5.99 µM
- IC50 [21]: 3.61 µM
- IC50 [22]: 0.758 µM
Structure (SMILES): C[C@@H](NC(=O)c1ncnc(N)c1Cl)c1ncc(C(=O)Nc2cc(C(F)(F)F)c(Cl)cn2)s1 + C#Cc1c(F)ccc2cc(O)cc(-c3ncc4c(N5CC6CCC(C5)N6)nc(OCC56CCCN5CC(F)C6)nc4c3F)c12
- viability, T/C [7]: 120%
- viability, T/C [8]: 109%
- viability, T/C [23]: 109%
- viability, T/C [24]: 109%
- viability, T/C [39]: 86.8%
- viability, T/C [40]: 55.2%
- viability, T/C [11]: 104%
- viability, T/C [12]: 111%
- viability, T/C [25]: 108%
- viability, T/C [26]: 109%
- viability, T/C [41]: 90.8%
- viability, T/C [42]: 52.2%
- viability, T/C [15]: 111%
- viability, T/C [16]: 113%
- viability, T/C [27]: 121%
- viability, T/C [28]: 117%
- viability, T/C [43]: 87.9%
- viability, T/C [44]: 49%
- viability, T/C [19]: 109%
- viability, T/C [20]: 112%
- viability, T/C [29]: 108%
- viability, T/C [30]: 91.5%
- viability, T/C [45]: 68.3%
- viability, T/C [46]: 35.8%
- viability, T/C [31]: 99.3%
- viability, T/C [32]: 111%
- viability, T/C [33]: 72.3%
- viability, T/C [34]: 82.2%
- viability, T/C [47]: 52.2%
- viability, T/C [48]: 24.3%
- viability, T/C [35]: 84.3%
- viability, T/C [36]: 69.7%
- viability, T/C [37]: 67.2%
- viability, T/C [38]: 46.4%
- viability, T/C [49]: 24.8%
- viability, T/C [50]: 18.7%

- IC50 (curve of compound): > 10 µM and 3.16 µM and 6.76 µM
Structure (SMILES): NC1c2ccccc2OC12CCN(c1cnc3c(N4CCCc5ncccc54)n[nH]c3n1)CC2 (stereo not given)
- viability, T/C (compound 0.0316 µM): 114% [middle of 4 runs]
- viability, T/C (compound 0.316 µM): 92.2% [middle of 4 runs]
- viability, T/C (compound 1 µM): 76.5% [middle of 4 runs]
- viability, T/C (compound 10 µM): 55.8% [middle of 4 runs]

- IC50 [1]: 8.8 µM
- IC50 [2]: 8.47 µM
- IC50 [3]: 7.91 µM
- IC50 [4]: 7.71 µM
- IC50 [21]: 4.6 µM
- IC50 [22]: 2.13 µM
Structure (SMILES): CC(C)NCC(C(=O)N1CCN(c2ncnc3c2C(C)CC3O)CC1)c1ccc(Cl)cc1 (stereo not given) + C#Cc1c(F)ccc2cc(O)cc(-c3ncc4c(N5CC6CCC(C5)N6)nc(OCC56CCCN5CC(F)C6)nc4c3F)c12
- viability, T/C [7]: 107%
- viability, T/C [8]: 103%
- viability, T/C [23]: 108%
- viability, T/C [24]: 111%
- viability, T/C [39]: 99.5%
- viability, T/C [40]: 43.8%
- viability, T/C [11]: 104%
- viability, T/C [12]: 109%
- viability, T/C [25]: 105%
- viability, T/C [26]: 111%
- viability, T/C [41]: 91.8%
- viability, T/C [42]: 43%
- viability, T/C [15]: 113%
- viability, T/C [16]: 110%
- viability, T/C [27]: 110%
- viability, T/C [28]: 108%
- viability, T/C [43]: 81.5%
- viability, T/C [44]: 42%
- viability, T/C [19]: 114%
- viability, T/C [20]: 121%
- viability, T/C [29]: 115%
- viability, T/C [30]: 103%
- viability, T/C [45]: 75.7%
- viability, T/C [46]: 42.5%
- viability, T/C [31]: 107%
- viability, T/C [32]: 101%
- viability, T/C [33]: 94.5%
- viability, T/C [34]: 97.2%
- viability, T/C [47]: 60.3%
- viability, T/C [48]: 28.4%
- viability, T/C [35]: 81.2%
- viability, T/C [36]: 82.2%
- viability, T/C [37]: 89.2%
- viability, T/C [38]: 74.1%
- viability, T/C [49]: 37.2%
- viability, T/C [50]: 18.5%

- IC50 (curve of compound): 9.77 nM [middle of 4 runs]
Structure (SMILES): Nc1ccn(C2OC(CO)C(O)C2(F)F)c(=O)n1 (stereo not given)
- viability, T/C (compound 0.00316 µM): 101% [middle of 4 runs]
- viability, T/C (compound 0.01 µM): 46.9% [middle of 4 runs]
- viability, T/C (compound 0.0316 µM): 29.4% [middle of 4 runs]
- viability, T/C (compound 0.1 µM): 16.2% [middle of 4 runs]
- viability, T/C (compound 0.316 µM): 15.4% [middle of 4 runs]
- viability, T/C (compound 1 µM): 15.7% [middle of 4 runs]
